Test results: US20090030079A1 (priority 2007, published 2009)
Where two headings read alike, the source gives them in different places.

Key:
[1] = Decorporation of Cobalt-60: tissue distribution and excretion of IV administered Co-60 in rats; assay type: in vivo, Male Wistar-Han rats; conditions: single oral dose 15 mg/kg; for Co-60 Dose % for animal group: single IV Co-60 14 KBq, 48 hr post exposure
Method: Materials. Chloride stock solution of ^60Co as ^60CoCl2 was diluted with sterile saline solution to adjust to the desired activity and used for the IV dosing. Activity of the dosing solution was determined using automated Wallac 1480 (Perkin Elmer) gamma counter equipped with 3 inch NaI(TI) crystal shielded detector.
Animals. Male Wistar-Han rats were obtained from Charles River Breeding Laboratory (Raleigh, N.C.) with indwelling jugular vein cannula. Animals were provided food and water ad libitum during acclimatization. The light cycle was 12 hour light/12 hour dark and relative humidity and temperature maintained at 50±15% and 22±2° C. All animal use protocols were approved by the Institutional Animal Care and Use Committee at Battelle, Pacific Northwest Division and studies were performed according to the “Guide for the Care and Use of Laboratory Animals” (National Research Council, Washington D.C., 1996).
Dosing regimen. Animals were restricted from food overnight prior to exposure. At the time of exposure, groups of animals (N=6) received a single intravenous (IV) injection (0.2 mL) of ^60Co solution at 14.0±0.6 KBq dose in sterile saline via an indwelling jugular vein cannula. […] The actual doses delivered were calculated based on the individual animal weights (Table 3). One group of animals was dosed with the radionuclide without subsequent administration of the chelation material to serve as control group. Following dosing, animals were placed in Nalgene metabolism cages for separate collection of urine and feces. […] Animals were sacrificed 48 hr post radionuclide administration. At sacrifice, blood and tissues (liver, kidney, spleen, gastrointestinal tract, muscle, bone, bone marrow, and lung) were collected, weighed and counted for radioactivity using a Wallac 1480 gamma counter. Gamma count data were normalized to percent administered dose after adjusting the grams of tissue collected for total organ mass.
Data statistical evaluation. Each data group was subjected to Dixon's Q-test to evaluate for potential outliers. In this test Q parameter of 0.625 (N=6, 95% confidence level, a=0.05) was used (1). For each tissue, a preliminary F-test (95% confidence level, a=0.05) for the equality of variances of the control and each treatment group was performed using Excel software. If the calculated probability p value was less than 0.05, the variances were assumed to be not equal. Based on this information, “T-test: Two-Sample Assuming Unequal Variances” or “T-test: Two-Sample Assuming Equal Variances” (95% confidence level, a=0.05) was performed using Excel software. The calculated p-value less than 0.05 provides evidence to reject the null hypothesis of equal means. The obtained statistical parameters listed in Table 4 served as guidelines for data evaluation (Table 5; calculation assumes that total skeleton, blood, or muscle is approximately 7.3, 6, or 40% of the body weight of the animal, respectively; Co-60 in skeleton is calculated based on the femur data—R. P. Brown, M. D. Delp, S. L. Undstedt, L. R. Rhomberg, and R. P. Beliles, Physiological Parameter Values for Physiologically Based Pharmacokinetic Models. Toxicology and Industrial Health, 1997, 13(4): 407-484).

[2] = Fe^2+; cited from earlier work
[3] = Cu^2+, cited from earlier work
[4] = Hg^2+, cited from earlier work
[5] = Decorporation of Polonium-210: tissue distribution of IV administered Po-210 in rats; assay type: in vivo, Wistar-Han rats; conditions: for % Reduction of Po-210 vs Po-210 Control / effect on polonium-210 level (in words): oral 15 mg/kg x 5, day 6; for Po-210 dpm/gm for animal group: single IV Po-210 approx. 90 kBq, oral 15 mg/kg every 24 h x 5, sacrifice day 6
Method: The digested sample was diluted with distilled water to reduce the nitric acid to approximately 1 M. An aliquot of the resulting solution was added to Ultima Gold XR liquid scintillation cocktail (Packard BioScience, Meriden, Conn.), counted and corrected for possible quenching.

[6] = Cd^2+, cited from earlier work
[7] = Zn^2+, cited from earlier work
[8] = Co^2+, cited from earlier work
[9] = Pb^2+, cited from earlier work
[10] = Ag^1+; cited from earlier work
[11] = Cr^2+; cited from earlier work
[12] = Ni^2+, cited from earlier work
[13] = Pd^2+, cited from earlier work

Q: What does the source list for `NCCNCCNCCN` [Trientine, N,N′-bis (2-aminoethyl)-1,2-ethanediamine]?
A: Co-60 Dose % for animal group ([1]; Blood): 0.18 ± 0.08%; % Reduction of Co-60 vs Co-60 Control ([1]; Blood, 48 hr): −98%; Co-60 Dose % for animal group ([1]; Bone Marrow): Below detection; Co-60 Dose % for animal group ([1]; Intestine): 0.98 ± 0.23%; % Reduction of Co-60 vs Co-60 Control ([1]; Intestine, 48 hr): 44%; Co-60 Dose % for animal group ([1]; Kidney): 0.62 ± 0.04%; % Reduction of Co-60 vs Co-60 Control ([1]; Kidney, 48 hr): 13%; Co-60 Dose % for animal group ([1]; Liver): 2.00 ± 0.47%; % Reduction of Co-60 vs Co-60 Control ([1]; Liver, 48 hr): 0%; Co-60 Dose % for animal group ([1]; Lung): 0.13 ± 0.05%; % Reduction of Co-60 vs Co-60 Control ([1]; Lung, 48 hr): 0%; Co-60 Dose % for animal group ([1]; Muscle): 1.13 ± 0.24%; % Reduction of Co-60 vs Co-60 Control ([1]; Muscle, 48 hr): 0%; Co-60 Dose % for animal group ([1]; Spleen): 0.058 ± 0.013%; % Reduction of Co-60 vs Co-60 Control ([1]; Spleen, 48 hr): 0%; Co-60 Dose % for animal group ([1]; Stomach): 0.072 ± 0.012%; % Reduction of Co-60 vs Co-60 Control ([1]; Stomach, 48 hr): 0%; Co-60 Dose % for animal group ([1]; Total Skeleton (from femur data)): 0.41 ± 0.22%; % Reduction of Co-60 vs Co-60 Control ([1]; Total Skeleton, 48 hr): 35%; effect on blood levels of Co-60 ([1]; 48 hr): elevated; effect on fecal elimination of Co-60 ([1]; day 1 post exposure): decreased; effect on urinary elimination of Co-60 ([1]; day 1 post exposure): noticeably enhanced; effect on total Co-60 excretion (urine and feces) ([1]; monitored 2 days, not statistically significant, 15 mg/kg): appeared to accelerate; binding stability constant (log K) [2]: 7.76; binding stability constant (log K) [3]: 20.05 (Cu^2+); binding stability constant (log K) ([3]; listed as trientine): very strongly; binding stability constant (log K) [4]: 24.5; binding stability constant (log K) ([4]; listed as trientine): very strongly; % Reduction of Po-210 vs Po-210 Control ([5]; Blood): 0%; Po-210 dpm/gm for animal group ([5]; Blood): 33273 ± 7289 dpm/gm; Po-210 dpm/gm for animal group ([5]; Femur): 22415 ± 2148 dpm/gm; % Reduction of Po-210 vs Po-210 Control ([5]; Kidney): 0%; Po-210 dpm/gm for animal group ([5]; Kidney): 187883 ± 15839 dpm/gm; % Reduction of Po-210 vs Po-210 Control ([5]; Liver): 14%; effect on polonium-210 level (in words) ([5]; Liver): reduced; Po-210 dpm/gm for animal group ([5]; Liver): 120883 ± 21221 dpm/gm; % Reduction of Po-210 vs Po-210 Control ([5]; Lung): 11%; Po-210 dpm/gm for animal group ([5]; Lung): 74512 ± 22281 dpm/gm; Po-210 dpm/gm for animal group ([5]; Spleen): 269303 ± 47082 dpm/gm; % Reduction of Po-210 vs Po-210 Control ([5]; femur): 15%; effect on polonium-210 level (in words) ([5]; femur): reduced; % Reduction of Po-210 vs Po-210 Control ([5]; spleen): 36%; effect on polonium-210 level (in words) ([5]; spleen): reduced; binding stability constant (log K) [6]: 10.6; binding stability constant (log K) ([6]; listed as trientine): fairly strong; binding stability constant (log K) [7]: 12; binding stability constant (log K) ([7]; listed as trientine): fairly strong; binding stability constant (log K) [8]: 10.9; binding stability constant (log K) ([8]; listed as trientine): fairly strong; binding stability constant (log K) [9]: 10.4; binding stability constant (log K) ([9]; listed as trientine): fairly strong; binding stability constant (log K) [10]: 7.5; binding stability constant (log K) [11]: 7.9; binding stability constant (log K) [12]: 13.8; binding stability constant (log K) ([12]; listed as trientine): very strongly; binding stability constant (log K) [13]: 39.4; binding stability constant (log K) ([13]; listed as trientine): very strongly
